From patent publication US20130165520A1, “Hybrid Molecule Having Mixed Retinoic Acid Receptor Agonism and Histone Deacetylase Inhibitory Properties” (priority 2010, published 2013)

Experiments:
[1] = biological target: purified human HDAC6 (Homo sapiens, UniProt Q9UBN7); test: Standard fluorescence HDAC assay; type: biochemical; details: purified human enzyme, read-out: IC50 against HDAC6
[2] = system: SNB-19; test: cells; details: Homo sapiens, SNB-19, 48 h
[3] = system: SNB-19; details: SNB-19 (CNS); 48 h
[4] = system: NCI-H460; test: cells; details: Homo sapiens, NCI-H460, 48 h
[5] = system: NCI-H522; test: cells; details: Homo sapiens, NCI-H522, 48 h
[6] = system: UO-31; test: cells; details: Homo sapiens, UO-31, 48 h
[7] = system: OVCAR-8; test: cells; details: Homo sapiens, OVCAR-8, 48 h
[8] = system: MCF7; details: MCF7 (Breast); 48 h
[9] = system: MDA-MB-231/ATCC; details: MDA-MB-231/ATCC (Breast); 48 h
[10] = system: NCI-H460; details: NCI-H460 (Non-Small cell lung cancer); 48 h
[11] = system: HOP-92; details: HOP-92 (Non-Small cell lung cancer); 48 h
[12] = system: DU-145; test: cells; details: Homo sapiens, DU-145, 48 h
[13] = system: T-47D; details: T-47D (Breast); 48 h
[14] = system: HS578T; details: HS578T (Breast); 48 h
[15] = system: SR; test: cells; details: Homo sapiens, 48 h
[16] = system: HCT-116; details: HCT-116 (Colon); 48 h
[17] = system: OVCAR-3; details: 48 h
[18] = system: PC-3; test: cells; details: Homo sapiens, PC-3, 48 h
[19] = system: SK-MEL-28; test: cells; details: Homo sapiens, SK-MEL-28, 48 h
[20] = system: ACHN; details: ACHN (Renal); 48 h
[21] = system: SkBr3; test: Cell growth measurement; type: cell-based; details: 10 days of treatment
Description: (§1) Finally, the effects of 3 on the growth of several breast cancer cell lines [MCF-7 (ER-positive, HER2-negative, RA-sensitive); SkBr3 (ER-negative, HER2-amplified, RA-sensitive); and the normally RA-insensitive MDA-MB-231 (ER-negative, HER2-negative, RA-insensitive)] was assessed.
(§2) Cell Growth Measurement: Cells were plated at 40 k cells per well (6-well plate) in DMEM 5% FBS-T for all cell lines except for I-IMEC cells which were plated in supplemented MEBM from Clonetics. Cells were treated every 48 hours and media was refreshed every 96 hours. After 10 days of treatment cells were harvested in 0.1N NaOH and growth was quantified by analyzing protein content of lysates with a Lowry assay.

[22] = system: MCF-7; test: Cell growth measurement; type: cell-based; details: 10 days of treatment
Description: as §1, §2

[23] = system: MDA-MB-231; test: Cell growth measurement; type: cell-based; details: 10 days of treatment
Description: as §1, §2

[24] = system: DU-145; details: DU-145 (Prostate); 48 h
[25] = system: SK-MEL-2; details: SK-MEL-2 (Melanoma); 48 h
[26] = system: non-tumorogenic immortalized mammary 184b5 cells; test: Cell growth measurement
[27] = system: OVCAR-4; details: 48 h
[28] = system: SK-MEL-5; test: cells; details: Homo sapiens, SK-MEL-5, 48 h
[29] = system: BT-549; test: cells; details: Homo sapiens, BT-549, 48 h
[30] = system: HL-60(TB); details: HL-60(TB) (Leukemia); 48 h
[31] = system: NCI-H226; test: cells; details: Homo sapiens, NCI-H226, 48 h
[32] = system: NCI-H322M; test: cells; details: Homo sapiens, 48 h
[33] = system: SK-MEL-2; test: cells; details: Homo sapiens, SK-MEL-2, 48 h
[34] = system: HOP-62; test: cells; details: Homo sapiens, HOP-62, 48 h

Sequence of purified human HDAC6 (Q9UBN7 whole entry): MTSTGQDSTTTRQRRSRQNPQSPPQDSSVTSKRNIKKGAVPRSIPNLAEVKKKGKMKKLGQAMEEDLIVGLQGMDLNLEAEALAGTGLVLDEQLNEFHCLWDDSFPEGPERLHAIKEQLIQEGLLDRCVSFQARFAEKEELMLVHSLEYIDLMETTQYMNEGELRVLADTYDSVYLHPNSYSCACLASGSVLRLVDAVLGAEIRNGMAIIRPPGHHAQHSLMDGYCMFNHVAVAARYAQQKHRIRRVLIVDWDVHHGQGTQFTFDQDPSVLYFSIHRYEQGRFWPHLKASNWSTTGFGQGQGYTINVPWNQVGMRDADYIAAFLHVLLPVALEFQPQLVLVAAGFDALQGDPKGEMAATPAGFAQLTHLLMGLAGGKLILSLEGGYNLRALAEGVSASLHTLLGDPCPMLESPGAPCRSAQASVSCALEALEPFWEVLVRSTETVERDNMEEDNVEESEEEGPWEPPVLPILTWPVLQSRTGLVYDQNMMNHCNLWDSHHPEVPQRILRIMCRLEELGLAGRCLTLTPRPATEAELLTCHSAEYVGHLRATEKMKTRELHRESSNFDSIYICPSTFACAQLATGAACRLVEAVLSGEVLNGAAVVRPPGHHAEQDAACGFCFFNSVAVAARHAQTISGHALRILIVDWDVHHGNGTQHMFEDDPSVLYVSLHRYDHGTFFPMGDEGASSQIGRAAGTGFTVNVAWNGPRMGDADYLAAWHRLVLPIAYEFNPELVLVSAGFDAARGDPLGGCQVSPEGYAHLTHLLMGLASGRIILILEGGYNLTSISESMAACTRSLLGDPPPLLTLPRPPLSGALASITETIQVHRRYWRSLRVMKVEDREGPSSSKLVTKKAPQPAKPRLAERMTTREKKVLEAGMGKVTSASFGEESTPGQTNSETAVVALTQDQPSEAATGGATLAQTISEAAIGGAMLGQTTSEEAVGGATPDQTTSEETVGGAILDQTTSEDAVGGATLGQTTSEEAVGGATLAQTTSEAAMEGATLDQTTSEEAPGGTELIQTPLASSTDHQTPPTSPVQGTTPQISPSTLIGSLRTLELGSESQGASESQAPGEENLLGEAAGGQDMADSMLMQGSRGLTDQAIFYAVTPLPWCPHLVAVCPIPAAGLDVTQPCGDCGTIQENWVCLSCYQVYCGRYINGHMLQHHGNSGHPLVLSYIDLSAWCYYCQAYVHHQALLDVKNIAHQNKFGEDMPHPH

CC1(C)CCC(C)(C)c2cc(-c3ccc4cc(C(=O)NO)ccc4c3)ccc21 [hybrid 3]
IC50 [1]: 148 nM | GI50 [2]: 1090 nM | CC50 ([2]; read-out: LC50): 5090 nM | TGI [3]: 2360 nM | GI50 [4]: 340 nM | CC50 ([4]; read-out: LC50): 4040 nM | GI50 [5]: 1620 nM | CC50 ([5]; read-out: LC50): 7980 nM | GI50 [6]: 404 nM | CC50 ([6]; read-out: LC50): 4530 nM | GI50 [7]: 459 nM | CC50 ([7]; read-out: LC50): 5120 nM | TGI [8]: 1680 nM | TGI [9]: 3590 nM | TGI [10]: 1070 nM | TGI [11]: 6350 nM | GI50 [12]: 622 nM | CC50 ([12]; read-out: LC50): 4680 nM | TGI [13]: 4030 nM | TGI [14]: 11800 nM | GI50 [15]: 335 nM | CC50 ([15]; read-out: LC50): 7640 nM | TGI [16]: 1500 nM | TGI [17]: 1880 nM | GI50 [18]: 1140 nM | CC50 ([18]; read-out: LC50): 21500 nM | GI50 [19]: 1810 nM | CC50 ([19]; read-out: LC50): 21700 nM | TGI [20]: 1490 nM | effect on cell growth [21]: active | IC50 ([21]; Homo sapiens, SK-BR-3, 240 h): 90 nM | effect on cell growth [22]: active | IC50 ([22]; Homo sapiens, MCF7, 240 h): 150 nM | effect on cell growth [23]: active | IC50 ([23]; Homo sapiens, 240 h): 300 nM | TGI [24]: 1900 nM | TGI [25]: 6310 nM | effect on growth of non-tumorogenic cells [26]: only minimal effects | TGI [27]: 5820 nM | GI50 [28]: 977 nM | CC50 ([28]; read-out: LC50): 5370 nM | GI50 [29]: 1420 nM | CC50 ([29]; read-out: LC50): 19700 nM | TGI [30]: 1520 nM | GI50 [31]: 1220 nM | CC50 ([31]; read-out: LC50): 18800 nM | GI50 [32]: 446 nM | CC50 ([32]; read-out: LC50): 26200 nM | GI50 [33]: 2420 nM | CC50 ([33]; read-out: LC50): 33600 nM | GI50 [34]: 616 nM | CC50 ([34]; read-out: LC50): 6180 nM
